According to paper PMC3388095, “Fluorophore Labeled Kinase Detects Ligands That Bind within the MAPK Insert of p38α Kinase” (PLoS ONE, 2012):
Where “and” joins values, the source holds several entries; their conditions need not be identical. Equal values may be shown once.

What was measured:
p38α MAPK insert = target: T1, p38α MAPK insert (Homo sapiens, UniProt Q16539, C119S/C162S/S252C); assay: FLiK direct binding assay, acrylodan-labeled p38α (S252C) MAPK insert / lipid binding site; details: binding to p38α MAPK insert; ratiometric acrylodan emission; each concentration in triplicate
T1 construct: His-tag with PreScission Protease cleavage site (N); made in house; host or cells: E. coli BL21(DE3) Codon+RIL
Experimental: The human p38α kinase construct containing the mutations required for specific labeling (C119S/C162S/S252C) as well as wild type p38α were cloned into a pOPINF vector and transformed as an N-terminal His-tag construct with a PreScission Protease cleavage site into BL21(DE3) Codon+RIL E. coli. Protein expression, purification, fluorophore labeling and verification of mono-labeling of the kinase were performed essentially as described previously. Labeling of the mutant p38α protein with thiol-reactive acrylodan was carried out by adding a 1.5∶1 molar excess of the fluorophore (dissolved in DMSO) to the purified protein in 50 mM Hepes Buffer (pH 7.0). The mixture was allowed to react in the dark overnight at 4°C. Unreacted acrylodan was subsequently removed by three cycles of buffer exchange into FLiK Measurement Buffer (50 mM Hepes Buffer, pH 7.4+200 mM NaCl) using a 10k-MWCO Centricon. The protein was concentrated to ∼200 μM, aliquoted and frozen at −80°C. Mono-labeling of the protein was verified by ESI-MS as described previously, [24].
Characterization of the fluorescence response of MAP insert-labeled p38α was carried out as described previously for p38α labeled on the activation loop. […] Briefly, a polystyrene cuvette containing a suspension of 50 nM acrylodan-labeled p38α in FLiK Buffer was excited at 386 nm and emission spectra were measured in the absence and presence of increasing concentrations of 1b. The compound was dissolved in 100% DMSO and delivered in sequential small doses to a single sample. […] Ratiometric fluorescence readouts are advantageous in that they provide an internal correction for small errors in sample volume which can affect signal intensity. All measurements of the cuvettes were made with a JASCO FP-6500 fluorescence spectrophotometer (JASCO GmbH, Germany).
The assay was adapted to high-throughput screening formats which enabled KD values to be determined in black small volume assay plates. Briefly, a dilution series of each compound was first prepared in 100% DMSO at 20X the desired final concentration and 1 μL was transferred to the assay plate. Compounds were then mixed with 19 µL of FLiK Buffer (supplemented with 0.01% Triton X-100) containing acrylodan-labeled p38α (100 nM). The final concentration of compound in the dilution series ranged from 0–50 μM (5% v/v DMSO final). Plates were covered with an adhesive aluminum foil and incubated for 30 min at RT prior to measurement of emission intensities at 470 and 520 nm using a Tecan Safire^2 plate reader. […] Binding curves were plotted using the ratio R = I520/I470 to determine the KD.

p38α = assay: glycine-rich loop FLiK binding assay (library screen); details: initial library screen
[1] = system: panel of 95 different kinases; assay: Kinase selectivity profile, 33P-ATP filter-binding assay (whole panel); assay type: biochemical; details: 10 µM; 95 kinases
Experimental: Figure 5 Kinase selectivity profile of 1b. Compound 1b was profiled against a selected panel of 95 different kinases at a concentration of 10 µM employing a radioactive (^33P-ATP) filter-binding assay (National Centre for Protein Kinase Profiling, Dundee). The numbers represent the remaining kinase activity in %. […]

T1 sequence (Q16539 whole entry C119S/C162S/S252C): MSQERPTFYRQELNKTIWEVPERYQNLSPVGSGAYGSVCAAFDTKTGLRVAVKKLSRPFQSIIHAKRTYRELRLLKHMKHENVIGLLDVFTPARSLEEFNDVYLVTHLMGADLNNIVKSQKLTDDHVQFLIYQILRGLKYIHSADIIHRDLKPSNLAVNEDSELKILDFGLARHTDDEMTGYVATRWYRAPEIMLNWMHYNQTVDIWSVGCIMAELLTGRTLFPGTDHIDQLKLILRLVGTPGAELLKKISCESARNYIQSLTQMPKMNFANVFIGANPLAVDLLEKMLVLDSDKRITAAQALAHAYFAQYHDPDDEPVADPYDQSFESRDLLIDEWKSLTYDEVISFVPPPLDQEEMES

Nc1ccc2c(NC3CC3)nc(-c3ccccc3)nc2c1 [1b, N^4-Cyclopropyl-2-phenyl-4,7-quinazolinediamine]
Kd (p38α MAPK insert): ~2.4 µM and 2.4 µM
binding detected by glycine-rich loop FLiK assay (p38α): weakly detected
inhibition of enzymatic activity across kinase panel [1]: does not inhibit enzymatic activity of any of the tested kinases
